Data set [1] concerns LNCaP prostate tumor cells. The data set is described as follows: In vitro Alamar Blue cytotoxicity assay of non-cleavable oligopeptide-doxorubicin conjugates. In kind it is cell-based, human. The conditions noted are these: FIG. 4 legend, cells incubated 3 days at 37° C., cell line not named in legend (LNCaP or DuPRO in method). The method, then: The cytotoxicities of the non-cleaveable oligopeptide-doxorubicin conjugates, prepared as described in Example 4, against a line of cells which is known to be killed by unmodified doxorubicin were assessed with an Alamar Blue assay. Specifically, cell cultures of LNCaP prostate tumor cells, which are a human metastatic prostate adenocarcinoma isolated from a needle biopsy of a lymph node (LNCaP.FGC: American Type Culture Collection, ATCC CRL 1740), or DuPRO cells in 96 well plates were diluted with medium containing various concentrations of a given conjugate (final plate well volume of 200 μl). The cells were incubated for 3 days at 37° C. and then 20 μl of Alamar Blue was added to the assay well. The cells were further incubated and the assay plates were read on a EL-310 ELISA reader at the dual wavelengths of 570 and 600 nm at 4 and 7 hours after addition of Alamar Blue. Relative percentage viability at the various concentration of conjugate tested was then calculated versus control (no conjugate) cultures. Cytotoxicities of unmodified doxorubicin and unmodified oligopeptide were also assessed.

The term EC50 denotes the concentration at which the effect is half-maximal. Read a low EC50 as an effect from little substance. Compound `COc1cccc2c1C(=O)c1c(O)c3c(c(O)c1C2=O)C[C@@](O)(C(=O)CO)C[C@@H]3O[C@H]1C[C@H](N)[C@H](O)[C@H](C)O1` [doxorubicin] gave an EC50 in data set [1] of 300 nM. On to “Ac-AlaAsnGluIleSerTyrGln.vertline.SerAlaSerThrGlu-amide”, for which, in the data set with free PSA, the cleaved bond entry is on record as “Gln-Ser”.

As to “Ac-AlaAsnLysAlaSerTyrGln.vertline.SerAlaSerCys-amide”, in the data set with free PSA, the cleaved bond result is given as “Gln-Ser”.

Turning to “Ac-AlaAsnLysAlaSerTyrGln.vertline.SerAlaSerThrGlu-amide”, the cleaved bond result in the data set on free PSA is listed as “Gln-Ser”. Still for that read-out and setting: with “Ac-AlaAsnLysIleSerTyrGln.vertline.SerAlaLysThrGlu-amide” the entry was “Gln-Ser”; with “Ac-AlaAsnLysIleSerTyrGln.vertline.SerAlaSerThrGlu-amide”, “Gln-Ser”. For the compound “Ac-AlaAsnLysIleSerTyrGln.vertline.SerSerGlnThrGlu-amide”, in the data set with free PSA, the cleaved bond entry is recorded as “Gln-Ser”. For the compound “Ac-AlaAsnLysIleSerTyrGln.vertline.SerSerLysThrGlu-amide”, the cleaved bond entry in the data set on free PSA is recorded as “Gln-Ser”.

For “Ac-AlaAsnLysIleSerTyrGln.vertline.SerSerSerThrGlu-amide”, the cleaved bond result with free PSA is on record as “Gln-Ser”. As to “Ac-AlaAsnLysIleSerTyrGln.vertline.SerSerSerThrLeu”, in the data set on free PSA, the cleaved bond result is on record as “Gln-Ser”. Regarding “Ac-AlaAsnLysIleSerTyrGln.vertline.SerSerSerThrLeu-amide”, the cleaved bond entry in the data set on free PSA is listed as “Gln-Ser”. Take “Ac-AlaAsnLysIleSerTyrGln.vertline.SerSerThrGlu-amide”: in the data set on free PSA, the cleaved bond result is listed as “Gln-Ser”. The same measure, in the same setting: with “Ac-AlaAsnLysIleSerTyrGln.vertline.SerThrGlu-amide” the entry was “Gln-Ser”; with “Ac-AlaAsnLysIleSerTyrTyr.vertline.SerAlaSerThrGlu-amide”, “Tyr-Ser”; with “Ac-AlaAsnLysIleSerTyrTyr.vertline.SerSerSerThrGlu-amide”, “Tyr-Ser”. For “Ac-AlaAsnLysSerTyrGln.vertline.SerSerThrGlu-amide”, the cleaved bond entry in the data set with free PSA is listed as “Gln-Ser”. “Ac-AlaAsnSerTyrGln.vertline.SerSerSerThrGlu-amide”: in the data set with free PSA, the cleaved bond result is “Gln-Ser”. Take “Ac-AlaAspLysAlaLysTyrGln.vertline.SerSer(Cha)-NHNH2”: in the data set with free PSA, the cleaved bond result was “Gln-Ser”.

With “Ac-AlaSerTyrGln.vertline.SerSerLeu-amide”, the cleaved bond result in the data set on free PSA was “Gln-Ser”. For the compound “Ac-AlaSerTyrGln.vertline.SerSerSerThrGlu-amide”, the cleaved bond entry in the data set on free PSA is on record as “Gln-Ser”. Turning to “Ac-AlaSerTyrGln.vertline.SerSerThrGlu-amide”, the cleaved bond entry in the data set on free PSA is on record as “Gln-Ser”. Still for that read-out and setting: with “Ac-AsnLysIleSerTyrGln.vertline.SerSer-amide” the entry was “Gln-Ser”; with “Ac-LysIleSerTyrGln.vertline.SerSer-amide”, “Gln-Ser”. The same measure, in the same setting: with “Ac-SerTyrGln.vertline.SerSerSerThrGlu-amide” the entry was “Gln-Ser”.

Consider “Ac-SerTyrGln.vertline.SerSerThrGlu-amide”, for which the cleaved bond result in the data set on free PSA is reported as “Gln-Ser”. For the compound “Ac-hArg(Cha)Gln.vertline.SerSerSer(ethylester-Leu)”, the cleaved bond entry in the data set with free PSA is reported as “Gln-Ser”. Regarding “Ac-hArgTyrGln.vertline.SerSerSer(Ethylester-Leu)”, the cleaved bond entry with free PSA was “Gln-Ser”. The same measure, in the same setting: with Ac-hArgTyrGln.vertline.SerSerSer(MeLeu) the entry was “Gln-Ser”. Still for that read-out and setting: with “AlaAsnLysIleSerTyrGln.vertline.SerSerSerThrGlu-amide” the entry was “Gln-Ser”.

The values above are taken from US6177404A (Merck & Co., Inc., priority 1998, dated 2001).
